# Laboratory results reported in patent publication US10952433B2, “Solutions for enhancing the effectiveness of insecticides and fungicides on living plants and related methods” (priority 2015, dated 2021).
# Read-outs that look alike come from different tables or passages of the source.
# Assays:
# [1] = system: lepidopteran larvae: cabbage loopers (Trichoplusia ni) and beet armyworms (Spodoptera exigua); type: in vivo; conditions: plants
# Description: In a first group of tests, the results of which are shown in Table 7 (pages 22-24), romaine lettuce plants two to three inches in height were exposed to 10 milliliters of solution applied to each plant using a low volume trigger spray. With respect to containers 0-7, ten plants were employed per container, nine were treated and one was an internal control. In containers M-H, ten plants per container were used, five were treated and 5 were internal controls. Each container was infested with 30 lepidopteran larvae between the 5th and 6th instar development. Fifteen cabbage loopers (Trichoplusia ni) and 15 beet armyworms (Spodoptera exigua) were used to infest the romaine lettuce plants. Visual evaluations for the average percentage total surface area damage were taken 24 hours after infestation. Percentage damage was evaluated by 5% increments for total damage across all plant leaves.
# As indicated in the first column of Table 7, in some tests, no insecticide was employed and there were two controls; a no water control and a no dye control. A wide variety of insecticides selected from the following group were tested: Chlorantranilopril, Acephate, Methoxyfenozide, Spinosad, Permethrin, and Indoxacarb. The product concentration is shown in PPM in column 2. Column 3 is divided into two subunits, the first being CO3 and the second, PO4. In all instances in columns 3, 4 and 5 and their sub-columns, the concentrations used were 200:1. The fourth column employed amine oxide, but no buffer. […] Two sub-columns each are represented for CO3 and PO4. The final column is a reading of the Percent Lepidopteran Damage to the romaine lettuce plants after 24 hours.
# In addition to testing the buffered amine system of the present invention with the two amine oxides identified as CO3 and PO4 and their use with 12 carbon length and a mixture of 12 and 18 designated 1218 for comparative data purposes various differences were created in the testing. Some of the tests were performed with (a) no insecticide along with (b) no amine oxide for CO3 and PO4 and (c) with no buffer, but with amine oxide. Also, tests were run using no insecticide and no water control with no foliar application being made. Tests with no insecticide and no dye control employed foliar application of water only. The tests were conducted with all of the testing on the buffer alone, the amine oxide alone and the buffered amine oxide system of the present invention in the concentration of 200:1.
# [2] = system: lepidopteran larvae: cabbage loopers (Trichoplusia ni) and beet armyworms (Spodoptera exigua); type: in vivo; conditions: leaf discs
# From the text: A second series of tests involved romaine lettuce discs approximately ⅝ inch in diameter. (L. sativa). They were dipped in the treatment solution one second per disc. This test involved the 5/5 configuration, i.e., 5 treated and 5 untreated. The infestation involved […] lepidopteran larvae at the 3rd to 4th instar development per container: four cabbage loopers (Trichoplusia ni), and four beet armyworms (Spodoptera exigua) were employed. The test containers were placed in a dark humidity cabinet at 15° C. and 80% relative humidity. Visual evaluations of the average percent damage were taken at 24, 48 and 72 hours after the initiation of infestation. Damage was evaluated in 5% increments based on total disc area.
# In the tests reported in Table 8 pages 29-32), romaine lettuce leaf discs ⅝″ in diameter (L. sativa) were dipped in the treatment solution for about one second per disc. Infestation was provided by eight lepidopteran larvae at the 3rd to 4th instar development per container. Four cabbage loopers (Trichoplusia ni) and four beet armyworms (Spodoptera exigua) were employed in infestation. The containers were placed in a dark humidity cabinet at 15° C. and 80% relative humidity. Visual observations of the average percent damage was taken at 24, 48 and 72 hours after infestation. Damage evaluation was by 5% increments over the total disc area.
# In the tests results provided in Table 8, the identity and concentrations of the insecticide was identical to the tests results reported in Table 7. The concentration of 200:1 was employed for the no amino oxide, no buffer and buffered amine oxide system. This series of tests, however, reported how the percent damage changed with time at the respective 24, 48 and 72 hour intervals.
# [3] = insecticide + CO3 buffer 200:1, no amine oxide, PPM: Chlorantranilopril 60, Acephate 70, Methoxyfenozide 100, Spinosad 30, Permethrin 10, Indoxacarb 50
# [4] = insecticide + PO4 buffer 200:1, no amine oxide, PPM: Chlorantranilopril 60, Acephate 70, Methoxyfenozide 100, Spinosad 30, Permethrin 10, Indoxacarb 50
# [5] = insecticide + amine oxide 12, no buffer, 200:1, PPM: Chlorantranilopril 60, Acephate 70, Methoxyfenozide 100, Spinosad 30, Permethrin 10, Indoxacarb 50
# [6] = insecticide + amine oxide 1218, no buffer, 200:1, PPM: Chlorantranilopril 60, Acephate 70, Methoxyfenozide 100, Spinosad 30, Permethrin 10, Indoxacarb 50
# [7] = insecticide + buffered amine oxide system CO3, 12, 200:1, PPM: Chlorantranilopril 60, Acephate 70, Methoxyfenozide 100, Spinosad 30, Permethrin 10, Indoxacarb 50
# [8] = insecticide + buffered amine oxide system CO3, 1218, 200:1, PPM: Chlorantranilopril 60, Acephate 70, Methoxyfenozide 100, Spinosad 30, Permethrin 10, Indoxacarb 50
# [9] = insecticide + buffered amine oxide system PO4, 12, 200:1, PPM: Chlorantranilopril 60, Acephate 70, Methoxyfenozide 100, Spinosad 30, Permethrin 10, Indoxacarb 50
# [10] = insecticide + buffered amine oxide system PO4, 1218, 200:1, PPM: Chlorantranilopril 60, Acephate 70, Methoxyfenozide 100, Spinosad 30, Permethrin 10, Indoxacarb 50
# [11] = insecticide alone, highest, PPM: Chlorantranilopril 120, Acephate 140, Methoxyfenozide 200, Spinosad 60, Permethrin 20, Indoxacarb 100
# [12] = insecticide alone, increased, PPM: Chlorantranilopril 90, Acephate 105, Methoxyfenozide 150, Spinosad 45, Permethrin 15, Indoxacarb 75
# [13] = insecticide alone, PPM: Chlorantranilopril 60, Acephate 70, Methoxyfenozide 100, Spinosad 30, Permethrin 10, Indoxacarb 50
structure (smiles),measurement,setting,value
COP(=O)(NC(C)=O)SC (centres unmarked) [Acephate],Percent Lepidopteran Damage to Romaine Lettuce 24 hr,[1]; [3],31.0%
same,Percent Lepidopteran Damage to Romaine Lettuce 24 hr,[1]; [4],20.0%
same,Percent Lepidopteran Damage to Romaine Lettuce 24 hr,[1]; [5],36.0%
same,Percent Lepidopteran Damage to Romaine Lettuce 24 hr,[1]; [6],28.0%
same,Percent Lepidopteran Damage to Romaine Lettuce 24 hr,[1]; [7],11.5%
same,Percent Lepidopteran Damage to Romaine Lettuce 24 hr,[1]; [8],4.5%
same,Percent Lepidopteran Damage to Romaine Lettuce 24 hr,[1]; [9],7.5%
same,Percent Lepidopteran Damage to Romaine Lettuce 24 hr,[1]; [10],1.0%
same,Percent Lepidopteran Damage to Romaine Lettuce 24 hr,[1]; [11],13.0%
same,Percent Lepidopteran Damage to Romaine Lettuce 24 hr,[1]; [12],16.5%
same,Percent Lepidopteran Damage to Romaine Lettuce 24 hr,[1]; [13],22.7%
same,Percent Lepidopteran Damage to Romaine Lettuce 24 hr,[2]; [3],50.0%
same,Percent Lepidopteran Damage to Romaine Lettuce 24 hr,[2]; [4],38.5%
same,Percent Lepidopteran Damage to Romaine Lettuce 24 hr,[2]; [5],27.0%
same,Percent Lepidopteran Damage to Romaine Lettuce 24 hr,[2]; [6],22.0%
same,Percent Lepidopteran Damage to Romaine Lettuce 24 hr,[2]; [7],34.0%
same,Percent Lepidopteran Damage to Romaine Lettuce 24 hr,[2]; [8],29.5%
same,Percent Lepidopteran Damage to Romaine Lettuce 24 hr,[2]; [9],43.5%
same,Percent Lepidopteran Damage to Romaine Lettuce 24 hr,[2]; [10],18.0%
same,Percent Lepidopteran Damage to Romaine Lettuce 24 hr,[2]; [11],29.0%
same,Percent Lepidopteran Damage to Romaine Lettuce 24 hr,[2]; [12],27.0%
same,Percent Lepidopteran Damage to Romaine Lettuce 24 hr,[2]; [13],27.5%
same,Percent Lepidopteran Damage to Romaine Lettuce 48 hr,[2]; [3],57.5%
same,Percent Lepidopteran Damage to Romaine Lettuce 48 hr,[2]; [4],53.0%
same,Percent Lepidopteran Damage to Romaine Lettuce 48 hr,[2]; [5],49.5%
same,Percent Lepidopteran Damage to Romaine Lettuce 48 hr,[2]; [6],52.5%
same,Percent Lepidopteran Damage to Romaine Lettuce 48 hr,[2]; [7],63.5%
same,Percent Lepidopteran Damage to Romaine Lettuce 48 hr,[2]; [8],50.5%
same,Percent Lepidopteran Damage to Romaine Lettuce 48 hr,[2]; [9],55.5%
same,Percent Lepidopteran Damage to Romaine Lettuce 48 hr,[2]; [10],32.5%
same,Percent Lepidopteran Damage to Romaine Lettuce 48 hr,[2]; [11],35.5%
same,Percent Lepidopteran Damage to Romaine Lettuce 48 hr,[2]; [12],44.5%
same,Percent Lepidopteran Damage to Romaine Lettuce 48 hr,[2]; [13],47.5%
same,Percent Lepidopteran Damage to Romaine Lettuce 72 hr,[2]; [3],61.0%
same,Percent Lepidopteran Damage to Romaine Lettuce 72 hr,[2]; [4],68.5%
same,Percent Lepidopteran Damage to Romaine Lettuce 72 hr,[2]; [5],59.5%
same,Percent Lepidopteran Damage to Romaine Lettuce 72 hr,[2]; [6],67.0%
same,Percent Lepidopteran Damage to Romaine Lettuce 72 hr,[2]; [7],66.0%
same,Percent Lepidopteran Damage to Romaine Lettuce 72 hr,[2]; [8],63.5%
same,Percent Lepidopteran Damage to Romaine Lettuce 72 hr,[2]; [9],72.0%
same,Percent Lepidopteran Damage to Romaine Lettuce 72 hr,[2]; [10],51.0%
same,Percent Lepidopteran Damage to Romaine Lettuce 72 hr,[2]; [11],42.0%
same,Percent Lepidopteran Damage to Romaine Lettuce 72 hr,[2]; [12],47.0%
same,Percent Lepidopteran Damage to Romaine Lettuce 72 hr,[2]; [13],79.5%
